Data: patent US8710065B2, “Tricyclic inhibitors of kinases” (AbbVie Inc., priority 2011, dated 2014)

These compounds were tested against T1, GST-tagged-Wee1 kinase (Homo sapiens, UniProt P30291) (assay: Wee1 time-resolved fluorescence equilibrium binding assay (displacement of Oregon Green-labeled ATP-competitive kinase probe)). Conditions: read-out: Wee-1 inhibition (Ki).
T1 construct: purchased Carnabio (Carna Biosciences) 05-177
How it was run: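 Ki values derive from competitive displacement, under equilibrium, of a fast-reversible ATP-site Oregon Green kinase probe from GST-tagged Wee1, detected by time-resolved fluorescence.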

T1 sequence (P30291 whole entry): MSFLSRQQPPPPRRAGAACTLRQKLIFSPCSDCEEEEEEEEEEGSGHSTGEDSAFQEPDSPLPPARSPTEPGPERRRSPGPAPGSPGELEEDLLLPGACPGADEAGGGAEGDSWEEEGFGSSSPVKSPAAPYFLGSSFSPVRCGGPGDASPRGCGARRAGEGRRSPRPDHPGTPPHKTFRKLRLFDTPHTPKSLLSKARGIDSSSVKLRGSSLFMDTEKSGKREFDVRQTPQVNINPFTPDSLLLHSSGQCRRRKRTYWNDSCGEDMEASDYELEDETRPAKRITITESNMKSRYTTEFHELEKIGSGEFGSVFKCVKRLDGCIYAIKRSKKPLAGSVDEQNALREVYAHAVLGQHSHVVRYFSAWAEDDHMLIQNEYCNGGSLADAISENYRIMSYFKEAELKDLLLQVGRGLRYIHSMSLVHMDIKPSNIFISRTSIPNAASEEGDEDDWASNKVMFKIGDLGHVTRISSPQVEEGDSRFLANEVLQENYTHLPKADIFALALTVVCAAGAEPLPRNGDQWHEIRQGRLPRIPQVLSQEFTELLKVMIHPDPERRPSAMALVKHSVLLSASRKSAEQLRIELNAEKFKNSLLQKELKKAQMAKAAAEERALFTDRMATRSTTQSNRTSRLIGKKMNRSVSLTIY

Compound	Ki
O=c1c2cnc(Nc3ccc(N4CCOCC4)cc3)nc2n2ccnc2n1-c1c(Cl)cccc1Cl [Example 169, 6-(2,6-dichlorophenyl)-2-{[4-(morpholin-4-yl)phenyl]amino}imidazo[1,2-a]pyrimido[5,4-e]pyrimidin-5(6H)-one]	< 10 nM
O=C1CNCCN1c1ccc(Nc2ncc3c(=O)n(-c4c(Cl)cccc4Cl)c4nccn4c3n2)cc1 [Example 174, 6-(2,6-dichlorophenyl)-2-{[4-(2-oxopiperazin-1-yl)phenyl]amino}imidazo[1,2-a]pyrimido[5,4-e]pyrimidin-5(6H)-one]	< 10 nM
O=c1c2cnc(Nc3ccc(N4C[C@H]5C[C@@H]4CN5)cc3)nc2n2ccnc2n1-c1c(Cl)cccc1Cl [Example 175, 2-({4-[(1R,4R)-2,5-diazabicyclo[2.2.1]hept-2-yl]phenyl}amino)-6-(2,6-dichlorophenyl)imidazo[1,2-a]pyrimido[5,4-e]pyrimidin-5(6H)-one]	< 10 nM
CN1C(C)(C)c2ccc(Nc3ncc4c(=O)n(-c5c(Cl)cccc5Cl)c5nccn5c4n3)cc2C1(C)C [Example 177, 6-(2,6-dichlorophenyl)-2-[(1,1,2,3,3-pentamethyl-2,3-dihydro-1H-isoindol-5-yl)amino]imidazo[1,2-a]pyrimido[5,4-e]pyrimidin-5(6H)-one]	< 10 nM
O=c1c2cnc(Nc3ccc4ncsc4c3)nc2n2ccnc2n1-c1c(Cl)cccc1Cl [Example 182, 2-(1,3-benzothiazol-6-ylamino)-6-(2,6-dichlorophenyl)imidazo[1,2-a]pyrimido[5,4-e]pyrimidin-5(6H)-one]	< 10 nM
COCCN(CCOC)c1ccc(Nc2ncc3c(=O)n(-c4ccccc4Cl)c4nccn4c3n2)cc1 [Example 183, 2-({4-[bis(2-methoxyethyl)amino]phenyl}amino)-6-(2-chlorophenyl)imidazo[1,2-a]pyrimido[5,4-e]pyrimidin-5(6H)-one]	10 to 100 nM
O=c1c2cnc(Nc3ccc4c(c3)CCN(C3CC3)CC4)nc2n2ccnc2n1-c1ccccc1Cl [Example 184, 6-(2-chlorophenyl)-2-[(3-cyclopropyl-2,3,4,5-tetrahydro-1H-3-benzazepin-7-yl)amino]imidazo[1,2-a]pyrimido[5,4-e]pyrimidin-5(6H)-one]	< 10 nM
CN1CCN(c2ccc(Nc3ncc4c(=O)n(-c5c(F)cc(F)cc5Cl)c5nccn5c4n3)cc2)CC1 [Example 186, 6-(2-chloro-4,6-difluorophenyl)-2-{[4-(4-methylpiperazin-1-yl)phenyl]amino}imidazo[1,2-a]pyrimido[5,4-e]pyrimidin-5(6H)-one]	< 10 nM
CN(C)C1Cc2ccc(Nc3ncc4c(=O)n(-c5c(F)cc(F)cc5Cl)c5nccn5c4n3)cc2C1 (stereo not drawn) [Example 188, 6-(2-chloro-4,6-difluorophenyl)-2-{[2-(dimethylamino)-2,3-dihydro-1H-inden-5-yl]amino}imidazo[1,2-a]pyrimido[5,4-e]pyrimidin-5(6H)-one]	< 10 nM
O=c1c2cnc(Nc3ccc(N4CCC(N5CCCC5)CC4)cc3)nc2n2ccnc2n1-c1ccccc1Cl [Example 190, 6-(2-chlorophenyl)-2-({4-[4-(pyrrolidin-1-yl)piperidin-1-yl]phenyl}amino)imidazo[1,2-a]pyrimido[5,4-e]pyrimidin-5(6H)-one]	< 10 nM
O=c1c2cnc(Nc3ccc4[nH]ncc4c3)nc2n2ccnc2n1-c1c(Cl)cccc1Cl [Example 194, 6-(2,6-dichlorophenyl)-2-(1H-indazol-5-ylamino)imidazo[1,2-a]pyrimido[5,4-e]pyrimidin-5(6H)-one]	< 10 nM
CC(C)[C@H]1CN(c2ccc(Nc3ncc4c(=O)n(-c5c(Cl)cccc5Cl)c5nccn5c4n3)cc2)CCN1 [Example 195, 6-(2,6-dichlorophenyl)-2-({4-[(3S)-3-(propan-2-yl)piperazin-1-yl]phenyl}amino)imidazo[1,2-a]pyrimido[5,4-e]pyrimidin-5(6H)-one]	< 10 nM
CNc1nc(C)c(-c2ccc(Nc3ncc4c(=O)n(-c5c(Cl)cccc5Cl)c5nccn5c4n3)cc2)s1 [Example 197, 6-(2,6-dichlorophenyl)-2-({4-[4-methyl-2-(methylamino)-1,3-thiazol-5-yl]phenyl}amino)imidazo[1,2-a]pyrimido[5,4-e]pyrimidin-5(6H)-one]	< 10 nM

Now from value to compound:

Ki	Compound
< 10 nM	O=c1c2cnc(Nc3ccc(C4CCNC4)cc3)nc2n2ccnc2n1-c1c(Cl)cccc1Cl (stereo not drawn) [Example 168, 6-(2,6-dichlorophenyl)-2-{[4-(pyrrolidin-3-yl)phenyl]amino}imidazo[1,2-a]pyrimido[5,4-e]pyrimidin-5(6H)-one]
10 to 100 nM	CC1(C)CN(CC(F)(F)F)Cc2cc(Nc3ncc4c(=O)n(-c5c(Cl)cccc5Cl)c5nccn5c4n3)ccc21 [Example 170, 6-(2,6-dichlorophenyl)-2-{[4,4-dimethyl-2-(2,2,2-trifluoroethyl)-1,2,3,4-tetrahydroisoquinolin-7-yl]amino}imidazo[1,2-a]pyrimido[5,4-e]pyrimidin-5(6H)-one]
< 10 nM	O=C(C1CC1)N1Cc2cc(Nc3ncc4c(=O)n(-c5c(Cl)cc(F)cc5Cl)c5nccn5c4n3)ccc2C2(CC2)C1 [Example 171, 2-{[2′-(cyclopropylcarbonyl)-2′,3′-dihydro-1′H-spiro[cyclopropane-1,4′-isoquinolin]-7′-yl]amino}-6-(2,6-dichloro-4-fluorophenyl)imidazo[1,2-a]pyrimido[5,4-e]pyrimidin-5(6H)-one]
< 10 nM	CS(=O)(=O)N1Cc2cc(Nc3ncc4c(=O)n(-c5c(Cl)cc(F)cc5Cl)c5nccn5c4n3)ccc2C2(CC2)C1 [Example 172, 6-(2,6-dichloro-4-fluorophenyl)-2-{[2′-(methylsulfonyl)-2′,3′-dihydro-1′H-spiro[cyclopropane-1,4′-isoquinolin]-7′-yl]amino}imidazo[1,2-a]pyrimido[5,4-e]pyrimidin-5(6H)-one]
< 10 nM	O=c1c2cnc(Nc3ccc(N4CCNCC4)nc3)nc2n2ccnc2n1-c1c(Cl)cc(F)cc1Cl [Example 173, 6-(2,6-dichloro-4-fluorophenyl)-2-{[6-(piperazin-1-yl)pyridin-3-yl]amino}imidazo[1,2-a]pyrimido[5,4-e]pyrimidin-5(6H)-one]
< 10 nM	CC(C)c1cc(Nc2ncc3c(=O)n(-c4c(Cl)cccc4Cl)c4nccn4c3n2)ccc1N1CCN(C)CC1 [Example 176, 6-(2,6-dichlorophenyl)-2-{[4-(4-methylpiperazin-1-yl)-3-(propan-2-yl)phenyl]amino}imidazo[1,2-a]pyrimido[5,4-e]pyrimidin-5(6H)-one]
< 10 nM	CN1Cc2cc(Nc3ncc4c(=O)n(-c5c(Cl)cccc5Cl)c5nccn5c4n3)ccc2C1(C)C [Example 178, 6-(2,6-dichlorophenyl)-2-[(1,1,2-trimethyl-2,3-dihydro-1H-isoindol-5-yl)amino]imidazo[1,2-a]pyrimido[5,4-e]pyrimidin-5(6H)-one]
< 10 nM	O=C1Nc2ccc(Nc3ncc4c(=O)n(-c5c(Cl)cccc5Cl)c5nccn5c4n3)cc2C[C@@H]2CNC[C@@H]12 [Example 179, (3aS,10aS)-8-{[6-(2,6-dichlorophenyl)-5-oxo-5,6-dihydroimidazo[1,2-a]pyrimido[5,4-e]pyrimidin-2-yl]amino}-2,3,3a,5,10,10a-hexahydropyrrolo[3,4-c][1]benzazepin-4(1H)-one]
< 10 nM	O=C1CCC(c2ccc(Nc3ncc4c(=O)n(-c5c(Cl)cccc5Cl)c5nccn5c4n3)cc2)=NN1 [Example 180, 6-(2,6-dichlorophenyl)-2-{[4-(6-oxo-1,4,5,6-tetrahydropyridazin-3-yl)phenyl]amino}imidazo[1,2-a]pyrimido[5,4-e]pyrimidin-5(6H)-one]
10 to 100 nM	O=c1c2cnc(Nc3ccc4snnc4c3)nc2n2ccnc2n1-c1c(Cl)cccc1Cl [Example 181, 2-(1,2,3-benzothiadiazol-5-ylamino)-6-(2,6-dichlorophenyl)imidazo[1,2-a]pyrimido[5,4-e]pyrimidin-5(6H)-one]
< 10 nM	O=c1c2cnc(Nc3ccc4c(c3)CCN(CC(F)F)CC4)nc2n2ccnc2n1-c1ccccc1Cl [Example 185, 6-(2-chlorophenyl)-2-{[3-(2,2-difluoroethyl)-2,3,4,5-tetrahydro-1H-3-benzazepin-7-yl]amino}imidazo[1,2-a]pyrimido[5,4-e]pyrimidin-5(6H)-one]
< 10 nM	CN1Cc2cc(Nc3ncc4c(=O)n(-c5c(F)cc(F)cc5Cl)c5nccn5c4n3)ccc2C(C)(C)C1 [Example 187, 6-(2-chloro-4,6-difluorophenyl)-2-[(2,4,4-trimethyl-1,2,3,4-tetrahydroisoquinolin-7-yl)amino]imidazo[1,2-a]pyrimido[5,4-e]pyrimidin-5(6H)-one]
10 to 100 nM	O=c1c2cnc(Nc3ccc(NCCCN4CCOCC4)cc3)nc2n2ccnc2n1-c1ccccc1Cl [Example 189, 6-(2-chlorophenyl)-2-[(4-{[3-(morpholin-4-yl)propyl]amino}phenyl)amino]imidazo[1,2-a]pyrimido[5,4-e]pyrimidin-5(6H)-one]
< 10 nM	CN(C)C1CCN(c2ccc(Nc3ncc4c(=O)n(-c5ccccc5Cl)c5nccn5c4n3)cc2)CC1 [Example 191, 6-(2-chlorophenyl)-2-({4-[4-(dimethylamino)piperidin-1-yl]phenyl}amino)imidazo[1,2-a]pyrimido[5,4-e]pyrimidin-5(6H)-one]
10 to 100 nM	CN1CCCC1CCNc1ccc(Nc2ncc3c(=O)n(-c4ccccc4Cl)c4nccn4c3n2)cc1 (stereo not drawn) [Example 192, 6-(2-chlorophenyl)-2-[(4-{[2-(1-methylpyrrolidin-2-yl)ethyl]amino}phenyl)amino]imidazo[1,2-a]pyrimido[5,4-e]pyrimidin-5(6H)-one]
< 10 nM	CN(C)C1CCC(OC(=O)c2ccc(Nc3ncc4c(=O)n(-c5c(Cl)cccc5Cl)c5nccn5c4n3)cc2)CC1 (stereo not drawn) [Example 193, 4-(dimethylamino)cyclohexyl 4-{[6-(2,6-dichlorophenyl)-5-oxo-5,6-dihydroimidazo[1,2-a]pyrimido[5,4-e]pyrimidin-2-yl]amino}benzoate]
< 10 nM	CC(C)CC(N(C)C)C1(c2ccc(Nc3ncc4c(=O)n(-c5c(Cl)cccc5Cl)c5nccn5c4n3)cc2)CCC1 (stereo not drawn) [Example 196]
